Results from US20230284660A1, “Siamenoside I Sweetened Compositions and Uses of the Same” (The Coca-Cola Company, priority 2017, published 2023).

Experiments:
Assay type in all cases: in vivo, human
[1] = Blind bench evaluation of sweeteners in six beverage matrices, RebM90 as control; details: Lemon Lime Sparkling (70% sugar reduction)
Procedure: A blind evaluation of the above-named sweeteners was conducted in six (6) beverage (liquid) matrices, including both sparkling and still matrixes. Of the six beverage matrices, four (4) were calorie reduction matrixes and two (2) were diet matrixes. RebM90 served as control. 7-10 internal team members blindly evaluated the samples.

[2] = Mock beverage tasting of sweeteners in citric acid buffer and phosphoric acid buffer; details: for Dosage for ~7 Brix SE: estimated concentrations, benchmark 500 ppm mogroside V
Excerpt: Siamenoside I was separately tasted in citric acid buffer (pH 3.2) and phosphoric acid buffer (pH 2.6) at 500 ppm and compared against an equivalent solution of RebM90 (RebM with at least 90% purity) and various other sweeteners.
Accordingly, the dosage of all other sweeteners was adjusted benchmark 500 ppm mogroside V. Estimated concentrations are presented below.

[3] = Blind bench tasting of lemon-lime flavored carbonated beverages; details: in blends with Reb-M
Procedure: The ingredients were dissolved in filtered water to constitute a syrup (6.5 times concentrated), then the final beverage was made by weighing the appropriate syrup amount and adding carbonated water using a ratio of 1 part syrup+5.5 parts carbonated water. Target carbonation volume in finished beverages was […] of CO2. For samples with high Reb-M content (#1 and #2) syrup water was heated to about 47° C. to allow Reb-M solubility, then cooled down to ambient temperature before adding the remaining ingredients. Final beverages were filled in 300 ml glass bottles then aged for 3 days at 35° C. before they were cooled and served cold (4° C.).
Four experienced panelists bench tasted the beverages blindly. Each panelist was given warm bottled water and unsalted crackers to eat and rinse the palate between samples. A maximum of 3 samples was tasted at each session to avoid fatigue.

SMILES | Dosage for ~7 Brix SE [2] | other results
C[C@H](CC[C@@H](O[C@@H]1O[C@H](CO[C@@H]2O[C@H](CO)[C@@H](O)[C@H](O)[C@H]2O)[C@@H](O)[C@H](O)[C@H]1O[C@@H]1O[C@H](CO)[C@@H](O)[C@H](O)[C@H]1O)C(C)(C)O)[C@H]1CC[C@@]2(C)[C@@H]3CC=C4[C@@H](CC[C@H](O[C@@H]5O[C@H](CO)[C@@H](O[C@@H]6O[C@H](CO)[C@@H](O)[C@H](O)[C@H]6O)[C@H](O)[C@H]5O)C4(C)C)[C@]3(C)[C@H](O)C[C@]12C [Isomogroside V] | 270 ppm | Comments: less sweet [1]: less sweet (−1.5 BE), mogroside
C[C@H](CC[C@@H](O[C@@H]1O[C@H](CO)[C@@H](O)[C@H](O)[C@H]1O[C@@H]1O[C@H](CO)[C@@H](O)[C@H](O)[C@H]1O)C(C)(C)O)[C@H]1CC[C@@]2(C)[C@@H]3CC=C4[C@@H](CC[C@H](O[C@@H]5O[C@H](CO)[C@@H](O)[C@H](O)[C@H]5O)C4(C)C)[C@]3(C)[C@H](O)C[C@]12C [Mogroside IIIe] | 350 ppm | –
C[C@H](CC[C@@H](O[C@@H]1O[C@H](CO)[C@@H](O)[C@H](O)[C@H]1O[C@@H]1O[C@H](CO)[C@@H](O)[C@H](O)[C@H]1O)C(C)(C)O)[C@H]1CC[C@@]2(C)[C@H]3CC=C4[C@@H](CC[C@H](O[C@@H]5O[C@H](CO[C@@H]6O[C@H](CO)[C@@H](O)[C@H](O)[C@H]6O)[C@@H](O)[C@H](O)[C@H]5O)C4(C)C)[C@]3(C)[C@H](O)C[C@]12C [Mogroside IV] | 435 ppm | –
C[C@H](CC[C@@H](O[C@@H]1O[C@H](CO[C@@H]2O[C@H](CO)[C@@H](O)[C@H](O)[C@H]2O)[C@@H](O)[C@H](O)[C@H]1O[C@@H]1O[C@H](CO)[C@@H](O)[C@H](O)[C@H]1O)C(C)(C)O)[C@H]1CC[C@@]2(C)[C@@H]3CC=C4[C@@H](CC[C@H](O[C@@H]5O[C@H](CO[C@@H]6O[C@H](CO)[C@@H](O)[C@H](O)[C@H]6O)[C@@H](O)[C@H](O)[C@H]5O)C4(C)C)[C@]3(C)[C@H](O)C[C@]12C [Mogroside V] | 500 ppm | Brix SE ([2]; 500 ppm): approximately 7 Brix SE; relative sweetness of solutions ([2]; 500 ppm, citric acid buffer pH 3.2 and phosphoric acid buffer pH 2.6): the least sweet
C=C1C[C@@]23CC[C@H]4[C@@](C)(CCC[C@@]4(C)C(=O)O[C@@H]4O[C@H](CO)[C@@H](O)[C@H](O[C@@H]5O[C@H](CO)[C@@H](O)[C@H](O)[C@H]5O)[C@H]4O[C@@H]4O[C@@H](C)[C@H](O)[C@@H](O)[C@H]4O)[C@@H]2CC[C@]1(O[C@@H]1O[C@H](CO)[C@@H](O)[C@H](O[C@@H]2O[C@H](CO)[C@@H](O)[C@H](O)[C@H]2O)[C@H]1O[C@@H]1O[C@H](CO)[C@@H](O)[C@H](O)[C@H]1O)C3 [Rebaudioside N] | 360 ppm | –
C[C@H](CC[C@@H](O[C@@H]1O[C@H](CO[C@@H]2O[C@H](CO)[C@@H](O)[C@H](O)[C@H]2O)[C@@H](O)[C@H](O)[C@H]1O[C@@H]1O[C@H](CO)[C@@H](O)[C@H](O)[C@H]1O)C(C)(C)O)[C@H]1CC[C@@]2(C)[C@@H]3CC=C4[C@@H](CC[C@H](O[C@@H]5O[C@H](CO)[C@@H](O)[C@H](O)[C@H]5O)C4(C)C)[C@]3(C)[C@H](O)C[C@]12C [Siamenoside I] | 350 ppm | maximum sweetness intensity [3]: 10 Brix equivalent
